Source: patent US20150126611A1, “3,3-DIPHENYL-N-(1-PHENYLETHYL) PROPAN-1-AMINE: AS A NEW SELECTIVE LIGAND OF THE SIGMA-1 RECEPTORS, WITH ANTI-APOPTOTIC (CYTOPROTECTIVE) PROPERTIES AND PROTOTYPICAL ANTICANCER ACTIVITY” (priority 2012, published 2015)

Legend:
sigma-1 receptors = sigma-1 receptors (Homo sapiens, UniProt Q99720); assay: binding to sigma-1 receptors; conditions: read-out: median concentrations of binding (IC50) for sigma-1 receptors
sigma-2 receptors = sigma-2 receptors (Homo sapiens, UniProt Q5BJF2); assay: binding to sigma-2 receptors; conditions: read-out: median concentrations of binding (IC50) for sigma-2 receptors
[1] = system: site-2 of the sodium channels; assay: affinity for site-2 of the sodium channels; format: binding
[2] = antagonism of pentylenetetrazole (PTZ) lethality in mice; format: in vivo; conditions: PTZ 130 mg/kg ip, DPPA 3 mg/kg po
Method: (§1) More important- at lower doses: 0,01 to 1,00 mg/kg, intraperitoneal (ip) in mice—the cytoprotective activity of DPPA obtained by antagonism of the endoplasmic reticulum stress (ER stress) and amelioration of the cytoprotective autophagic processus of the cells and, more specifically, of neurons (in the neurodegenerative diseases and eldery). […] These cytoprotective activities of DPPA were completed, specifically in neurons, by inhibiting their entry in the cell cycle, as this entry is always fatal for neurons. In contrast, concerning the cancer cells, the above inhibition triggered the apoptotic processus and their death.

[3] = system: mitochondrial toxicity of pentylenetetrazole (PTZ); assay: as above; format: in vivo; conditions: PTZ 130 mg/kg ip
Method: as §1

[4] = system: Paclitaxel-induced neuropathic pain; assay: neuropathic pain by sensibilisation with Paclitaxel, formalin injection in hind paw; format: in vivo; conditions: po, mice
Method: Finally, in the experimental protocol of neuropathic pain by sensibilisation with Paclitaxel and evaluation of the neuropathic pain by injection of formalin in the hind paw of mice, the analgesic effect of DPPA was significative from 1.0 mg/kg (po) and was spectacular at higher doses (25 to 75 mg/kg, po). Indeed, the Paclitaxel+DPPA treated mice were less sensible to formalin than the control mice not treated with Paclitaxel.

[5] = system: scopolamine induced amnesia; assay: scopolamine induced amnesia; format: in vivo; conditions: mice
[6] = system: dizocilpine induced amnesia; assay: dizocilpine induced amnesia; format: in vivo; conditions: mice
Aβ25-35 induced amnesia = assay: amyloid Aβ25-35 induced amnesia (Y-maze and step-through); format: in vivo, mice
From the text: Indeed, concerning the cytodegenerative diseases and more specifically the neurodegenerative diseases (Alzheimer, Huntington, Parkinson or Multiple Sclerosis), DPPA, in contrast to the symptomatic treatments used currently against the above diseases, antagonizes their pathophysiological causes ie., the endocellular biochemical stress and, concerning the neurons, also their fatal entry in the cell cycle. Of particular interest was the action of DPPA when it was coadministered with the inhibitors of the acetylcholinesterases (IAChEases) which are used as symptomatic drugs (principally Rivastigmine, Donepezil and Galantamine) against the Alzheimer's Disease (AD). […] Indeed, DPPA, via its antagonistic action on the M2 muscatinic autoreceptors of the brain cholinergic neurons (M2[−]), abolished the pro-neurodegenerative agonistic activity of the IAChEases on the hyperactivated (by AD or by the soluble Aβ25-35) cerebral M2 muscarinic autoreceptors, originating a new pharmacological approach (M2[−]) and (σ1[+]) against the neurodegenerative effects of Aβ25-35 in AD and also against the deleterious effect of the agonistic action of IAChEases on the M2 muscarinic brain autoreceptors, validating these drugs (IAChEases) as putative therapeutic agents against AD.

[7] = system: colon, prostate, ovarian, pancreas and hepatic cancer cells; assay: in vitro anticancer activity; format: cell-based
cancer cells = assay: anticancer activity in vitro and in vivo by inoculation of cancer cells in SCID mice; design: species or system immunosuppressed SCID mice
From the text: The anticancer activity of DPPA was studied in vitro and in vivo by inoculation of cancer cells in immunosuppressed SCID mice. […] Moreover, even when the neuropathic pain, induced by the anticancer drugs was installed, DPPA antagonized it, by inhibition of the hypersensitive neurons injured by the neurotoxicity of the above anticancer drugs.

M2 muscarinic receptors = biological target: T1, M2 muscarinic receptors (Mus musculus, UniProt Q9ERZ4); assay: peripheral M2 muscarinic antagonism in mice; format: in vivo; conditions: 0.1 to 10 mg/kg, ip
T1 construct: from tissue; host or cells: living mice, peripheral tissues
T1 sequence (Q9ERZ4 1-466): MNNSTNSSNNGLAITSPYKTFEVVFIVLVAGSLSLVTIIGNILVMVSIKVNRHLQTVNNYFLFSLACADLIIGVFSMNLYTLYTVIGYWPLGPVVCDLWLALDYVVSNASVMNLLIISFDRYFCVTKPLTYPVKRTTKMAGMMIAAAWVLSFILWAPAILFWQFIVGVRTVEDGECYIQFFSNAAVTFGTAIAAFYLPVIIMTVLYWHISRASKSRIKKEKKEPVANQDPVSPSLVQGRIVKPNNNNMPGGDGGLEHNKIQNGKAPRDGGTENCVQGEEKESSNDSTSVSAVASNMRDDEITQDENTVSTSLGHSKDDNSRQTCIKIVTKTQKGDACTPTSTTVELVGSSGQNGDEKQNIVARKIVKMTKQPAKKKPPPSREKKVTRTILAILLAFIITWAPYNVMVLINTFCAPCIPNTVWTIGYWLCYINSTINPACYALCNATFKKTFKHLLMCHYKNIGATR

M3 muscarinic receptors = biological target: T2, M3 muscarinic receptors (Mus musculus, UniProt Q9ERZ3); assay: peripheral M3 muscarinic antagonism in mice; format: in vivo; conditions: 0.1 to 10 mg/kg, ip
T2 construct: from tissue; host or cells: living mice, peripheral tissues

[8] = system: immobility in forced swimming; conditions: po, mice, Porsolt; cited from earlier work

Chain of sigma-2 receptors (Q5BJF2 whole entry): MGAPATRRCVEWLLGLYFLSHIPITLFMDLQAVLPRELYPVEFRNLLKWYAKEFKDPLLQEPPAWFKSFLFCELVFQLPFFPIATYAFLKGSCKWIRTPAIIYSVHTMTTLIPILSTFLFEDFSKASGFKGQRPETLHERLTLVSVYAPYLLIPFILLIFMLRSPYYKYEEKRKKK
Chain of sigma-1 receptors (Q99720 whole entry): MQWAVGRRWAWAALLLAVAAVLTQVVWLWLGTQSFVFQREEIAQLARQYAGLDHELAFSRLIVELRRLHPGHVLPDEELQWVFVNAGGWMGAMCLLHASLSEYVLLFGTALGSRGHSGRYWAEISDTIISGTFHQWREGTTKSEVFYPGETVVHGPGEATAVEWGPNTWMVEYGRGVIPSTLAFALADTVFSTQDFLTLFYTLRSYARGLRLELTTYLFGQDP
T2 sequence (Q9ERZ3 whole entry): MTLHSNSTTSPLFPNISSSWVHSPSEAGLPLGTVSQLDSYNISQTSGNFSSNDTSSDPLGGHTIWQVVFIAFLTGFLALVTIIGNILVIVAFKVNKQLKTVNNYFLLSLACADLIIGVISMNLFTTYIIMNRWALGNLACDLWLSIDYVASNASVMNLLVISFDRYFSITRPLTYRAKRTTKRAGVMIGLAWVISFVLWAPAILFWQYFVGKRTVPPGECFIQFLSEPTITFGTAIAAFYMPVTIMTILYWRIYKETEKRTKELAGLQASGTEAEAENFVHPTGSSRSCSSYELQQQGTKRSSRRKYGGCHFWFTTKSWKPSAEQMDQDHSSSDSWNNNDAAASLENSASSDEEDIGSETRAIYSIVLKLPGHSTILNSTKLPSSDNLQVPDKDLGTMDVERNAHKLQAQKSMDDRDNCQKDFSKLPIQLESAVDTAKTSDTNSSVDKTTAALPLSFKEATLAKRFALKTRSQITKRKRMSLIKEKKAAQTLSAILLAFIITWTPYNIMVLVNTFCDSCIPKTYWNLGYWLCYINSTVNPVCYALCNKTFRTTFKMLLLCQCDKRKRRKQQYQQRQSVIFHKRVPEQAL

## CC(NCCC(c1ccccc1)c1ccccc1)c1ccccc1 (centres unmarked) [DPPA, 3,3-diphenyl-N-(1-phenylethyl) propan-1-amine]
sigma-1 receptors
  IC50: 14 to 18 nM
sigma-2 receptors
  IC50: 730 to 850 nM
[1]
  IC50: 290 nM
[2]
  increase of the latency of lethality of PTZ: 5 fold
[3]; DPPA 10 mg/kg po
  increase of the latency of lethality of PTZ: 10 fold
[3]; DPPA 30 mg/kg po
  increase of the latency of lethality of PTZ: 20 fold
[4]; 25 to 75 mg/kg
  analgesic effect at higher doses: spectacular
[4]; Paclitaxel sensibilisation, formalin in hind paw
  dose from which the analgesic effect was significative: ≥ 1.0 mg/kg
[5]
  antagonism of scopolamine induced amnesia: antagonism
[6]
  antagonism of dizocilpine induced amnesia: antagonism
Aβ25-35 induced amnesia; intracerebral soluble Aβ25-35, mice, Y-maze and step-through
  antiamnesic action on coadministration with IAChEases (Rivastigmine or Donepezil): higher than the sum of the antiamnesic effects of DPPA and IAChEases
Aβ25-35 induced amnesia; mice
  antagonism of amyloids Aβ25-35 induced amnesia: antagonism
[7]
  anticancer activity on cancer cells in vitro: demonstrated the anticancer activity
Cancer cells
  anticancer activity versus clinically used anticancer drugs: lower than those of the clinically used anticancer drugs
M2 muscarinic receptors
  effects on M2 muscarinic receptors in the periphery: antagonistic effects
M3 muscarinic receptors
  effects on M3 muscarinic receptors in the periphery: antagonistic effects
[8]
  dose at which anti-immobility properties are significative: more than 10 mg/kg
